Common to all, as to format: cell-based
Assay [1] has as its system Human acute lymphocytic leukemia T lymphocytes cell line (CCRF-CEM). Put plainly: Inhibition of CCRF-CEM cell proliferation (CellTiter luminescent viability). To be noted: Homo sapiens, 96 h, Table IL3, BCR-ABL inhibitor-based; for inhibition at 0.01 µM: 10 nM, read-out: Inhibition Rate at 10 nM (%); for inhibition at 0.5 µM: 500 nM, read-out: Inhibition Rate at 500 nM (%). The method, then: (§1) The tumor cells used herein were cultured in a cell culture medium listed in table 3 at 37 °C in an incubator with 5% CO2. Prior to experimentation, all cell lines used were correctly identified by STR profiling, and tested negative for mycoplasma contamination using a mycoplasma detection kit through routine screenings.
(§2) The IC50 values of the compounds of the present disclosure (including the compounds in Table 1, Table 2, and Examples 1-468) were determined using the CellTiter-Meiluncell Luminescent Cell Viability Assay Kit from Dalian Meilun Biotech Co., Ltd. The detailed procedure is as follows: Tumor cells were seeded in 96-well cell culture plates at the densities specified in Table 4. On the following day, the test compounds of the present disclosure were subjected to serial dilution. The dilution can be performed according to one of the following two methods: • (1) The first dilution method: The test compounds of the present disclosure (including the compounds in Table 1, Table 2, and Examples 1-468) were subjected to 5-fold serial dilutions starting from a highest concentration of 2000 μM, resulting in a total of 9 concentrations from high to low (2000, 400, 80, 16, 3.2, 0.64, 0.128, 0.0256, 0.00512 μM). Subsequently, 0.5 μL of the test compound dilution was transferred into the 96-well plate containing the cells, with each well containing 100 μL of cell culture medium. […] Into the 96-well plate, the diluted test compounds and corresponding detection reagents were added, resulting in final test compound concentrations of 500 nM and 10 nM, respectively. The experimental procedure is described below using the diluted 2 μM test compound as an example.
(§3) 0.5 μL of the aforementioned diluted compound of the present disclosure (including the compounds in Table 1, Table 2, and Examples 1-468) was added to the seeded cells in 100 μL of medium, yielding a final test compound concentration of 10 nM. After the cells were treated with the compounds of the present disclosure for a specified period, the cell viability assay reagent was added to the culture medium according to the kit's instructions to determine cell viability. […] All controls were treated using the same procedure as the compounds of the present disclosure. The growth inhibition curves for the compounds of the present disclosure were plotted using Prism GraphPad software, and the IC50 values were calculated therefrom.

In assay [2] the test system is Human myeloid monocytic leukemia cell line (MV-4-11). Put plainly: Inhibition of MV-4-11 cell proliferation (CellTiter luminescent viability). To be noted: Homo sapiens, MV4-11, Table IL2, BCR-ABL inhibitor-based, 96 hours. The method, then: as §1, §2, §3
Assay [3] deals with Human Multiple myeloma cell line (MM.1S). Put plainly: Inhibition of MM.1S cell proliferation (CellTiter luminescent viability). To be noted: Homo sapiens, MM1.S, 96 hours; for inhibition at 0.01 µM: 10 nM, read-out: Inhibition Rate at 10 nM (%); for inhibition at 0.5 µM: 500 nM, read-out: Inhibition Rate at 500 nM (%). The method, then: as §1, §2, §3
The next assay deals with T1, IRAK4 (Homo sapiens, UniProt Q9NWZ3).
T1 construct: expression of target proteins in cells; endogenous in cells
T1 sequence (Q9NWZ3 1-460): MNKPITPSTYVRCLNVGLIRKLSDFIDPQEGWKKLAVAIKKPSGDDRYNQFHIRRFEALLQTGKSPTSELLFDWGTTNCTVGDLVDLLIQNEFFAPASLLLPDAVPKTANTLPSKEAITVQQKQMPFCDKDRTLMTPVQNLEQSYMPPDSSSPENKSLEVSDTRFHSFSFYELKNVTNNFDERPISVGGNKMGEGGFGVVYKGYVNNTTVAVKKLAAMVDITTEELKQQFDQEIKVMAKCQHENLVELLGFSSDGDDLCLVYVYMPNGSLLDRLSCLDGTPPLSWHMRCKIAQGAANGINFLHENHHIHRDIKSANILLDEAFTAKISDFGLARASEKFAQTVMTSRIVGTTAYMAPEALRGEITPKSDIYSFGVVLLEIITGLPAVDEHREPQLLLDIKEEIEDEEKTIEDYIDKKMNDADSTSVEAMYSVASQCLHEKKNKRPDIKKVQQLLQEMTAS
As to the kind of experiment: Western blot degradation of IRAK4. The settings on record: hPBMC Cell; 24 hours. The method, then:
Conventional Western blot assay was performed to evaluate the effects of the compounds of the present disclosure on the expression of target proteins in cells.
(1) Cell Seeding and Protein Harvesting: The selected cells were processed according to the cell seeding procedure and protein harvesting procedure in Table II-2.
(2) To the collected supernatant, 5×SDS sample loading buffer was added, followed by denaturation at 95 °C for 5 minutes. The denatured samples were then separated by SDS-PAGE electrophoresis on a polyacrylamide gel. Proteins were transferred to a nitrocellulose membrane (0.45 μm NC membrane), blocked with blocking buffer at room temperature for 1 hour, and subjected to antibody incubation and development procedures according to the antibody manufacturer's instructions (Cell Signaling Technology).
Half-Maximal Degradation Concentration value (the drug concentration required for degrading proteins by 50%, abbreviated as DC50) reads method: comparing the grayscale values of Western blot bands from drug-treated samples with those from blank DMSO-treated controls, and identifying the drug concentration range at which the grayscale value is half that of the DMSO-treated control bands.
DC50 values can be calculated using ImageJ software to measure grayscale values of Western blot bands from drug-treated samples. The concentration-response curve is fitted to estimate the drug concentration corresponding to half the grayscale value.
Target protein remaining (%) refers to the percentage of target protein remaining in cells after treatment with protein degrader compounds.
Calculation method for target protein remaining (%): Use ImageJ software to measure grayscale values of Western blot bands from drug (protein degrader)-treated samples. The grayscale value of drug-treated bands is divided by that of internal control protein bands, and the resulting quotient is normalized to obtain the relative percentage of remaining target protein after protein degrader treatment.
Target protein degradation rate (%)=1−target protein remaining (%).
On the technique in general: In western blotting, separated proteins are transferred to a membrane and probed.

In assay [4] the test system is Human Acute T Lymphoblastic Leukemia Cells (Molt-4). Put plainly: Inhibition of Molt-4 cell proliferation (CellTiter luminescent viability). The settings on record: Homo sapiens; for inhibition at 0.01 µM: read-out: Inhibition Rate at 10 nM (%); for inhibition at 0.5 µM: read-out: Inhibition Rate at 500 nM (%). The method, then: as §1, §2, §3
[5] abbreviates: Table IL1, BCR-ABL inhibitor-based.
[6] abbreviates: MOLT-4, Molt-4, 10 nM, Table IN3.
The mark [7] stands for this setting: MOLT-4, Molt-4, 500 nM, Table IN3.
[8] abbreviates: MOLT-4, 96 h, Table IA2, IRAK4 inhibitor-based, Molt-4, 10 nM, 96 hours.
The mark [9] stands for this setting: MOLT-4, 96 h, Table IA2, IRAK4 inhibitor-based, Molt-4, 500 nM, 96 hours.
Where [10] appears, read: Table IA5, IRAK4 inhibitor-based.

Like-named read-outs stand apart in the source and are kept apart here.

The term inhibition denotes how much of the control response was suppressed.

Turning to `Cc1nc(Nc2ncc(C(=O)Nc3c(C)cccc3Cl)s2)cc(N2CCN(CCO)CC2)n1` [Dasatinib, reference compound], the inhibition at 0.01 µM in assay [1] was 10 to 15%; in assay [2] (MV-4-11, 10 nM, read-out: Inhibition Rate at 10 nM (%)), 10 to 15%; in assay [3] (setting [5]), 0 to 5%. Further, the inhibition at 0.5 µM in assay [1] lay within 15 to 20%; in assay [2] (MV-4-11, 500 nM, read-out: Inhibition Rate at 500 nM (%)), 40 to 50%; in assay [3] (setting [5]), 15 to 20%.
For `COc1cc2nn(C3CCN(Cc4ccc5c(c4)CN(N4CCC(=O)NC4=O)C5=O)CC3)cc2cc1NC(=O)c1cccc(C(F)(F)F)c1` [GT-04876, N-(2-(1-((2-(2,4-dioxotetrahydropyrimidin-1(2H)-yl)-1-oxoisoindolin-5-yl)methyl)piperidin-4-yl)-6-methoxy-2H-indazol-5-yl)-3-(trifluoromethyl)benzamide], the “Degradation of substrate protein IRAK4 (substrate protein remaining %)” value at IRAK4 is “A (0%≤substrate protein remaining %≤80%)”.
For the compound `O=C1CCN(N2Cc3cc(CN4CCN(C5CCN(c6ncc(C(=O)Nc7ccc(OC(F)(F)Cl)cc7)cc6-c6cc[nH]n6)CC5)CC4)ccc3C2=O)C(=O)N1` [GT-08226, N-(4-(chlorodifluoromethoxy)phenyl)-6-(4-(4-((2-(2,4-dioxotetrahydropyrimidin-1(2H)-yl)-1-oxoisoindolin-5-yl)methyl)piperazin-1-yl)piperidin-1-yl)-5-(1H-pyrazol-3-yl)nicotinamide], in assay [1], the inhibition at 0.01 µM fell in the range of 5 to 10% and the inhibition at 0.5 µM lay within 30 to 40%.
As for `C[C@@H]1CNC(=O)c2cc3ccc(C(=O)Nc4cnn(Cc5ccc(N6CCC(N7CCN(CC8CCN(c9ccc%10c(c9)C(=O)N(N9CCC(=O)NC9=O)C%10=O)CC8)CC7)CC6)cc5)c4)nc3n21` [GT-08343, (R)—N-(1-(4-(4-(4-((1-(2-(2,4-dioxotetrahydropyrimidin-1(2H)-yl)-1,3-dioxoisoindolin-5-yl)piperidin-4-yl)methyl)piperazin-1-yl)piperidin-1-yl)benzyl)-1H-pyrazol-4-yl)-9-methyl-6-oxo-6,7,8,9-tetrahydropyrido[3′,2′: 4,5]pyrrolo[1,2-a]pyrazine-2-carboxamide], the inhibition at 0.01 µM in assay [4] (MOLT-4, Molt-4, 10 nM, Table IN2) fell in the range of 20 to 30%; in assay [4] (setting [6]) it was 30 to 40%. The inhibition at 0.5 µM in assay [4] (MOLT-4, Molt-4, 500 nM, Table IN2) lay in the range of 30 to 50%; in assay [4] (setting [7]) it was 60 to 70%.
For the compound `C[C@@H]1CNC(=O)c2cc3ccc(C(=O)Nc4cnn(Cc5ccc(N6CCC(N7CCN(CC8CCN(c9cccc%10c9C(=O)N(N9CCC(=O)NC9=O)C%10=O)CC8)CC7)CC6)cc5)c4)nc3n21` [GT-08344, (R)—N-(1-(4-(4-(4-((1-(2-(2,4-dioxotetrahydropyrimidin-1(2H)-yl)-1,3-dioxoisoindolin-4-yl)piperidin-4-yl)methyl)piperazin-1-yl)piperidin-1-yl)benzyl)-1H-pyrazol-4-yl)-9-methyl-6-oxo-6,7,8,9-tetrahydropyrido[3′,2′: 4,5]pyrrolo[1,2-a]pyrazine-2-carboxamide], the inhibition at 0.01 µM in assay [4] (setting [6]) was 5 to 10%. Further, the inhibition at 0.5 µM in assay [4] (setting [7]) was 80 to 100%.
On to `COc1cc2nn([C@H]3CC[C@H](CN4C[C@H]5C[C@@H]4CN5c4ccc5c(c4)C(=O)N(N4CCC(=O)NC4=O)C5=O)CC3)cc2cc1NC(=O)c1cccc(C(F)(F)F)c1` [GT-08663, N-(2-((1R,4r)-4-(((1R,4R)-5-(2-(2,4-dioxotetrahydropyrimidin-1(2H)-yl)-1,3-dioxoisoindolin-5-yl)-2,5-diazabicyclo[2.2.1]heptan-2-yl)methyl)cyclohexyl)-6-methoxy-2H-indazol-5-yl)-3-(trifluoromethyl)benzamide], for which, in assay [4] (setting [8]), the inhibition at 0.01 µM was 10 to 15%. In addition, the inhibition at 0.5 µM in assay [4] (setting [9]) was 15 to 20%.
The matching figures for `COc1cc2nn([C@H]3CC[C@H](CN4CC5CCC(C4)N5c4ccc5c(c4)C(=O)N(N4CCC(=O)NC4=O)C5=O)CC3)cc2cc1NC(=O)c1cccc(C(F)(F)F)c1` [GT-08665, N-(2-((1r,4r)-4-((8-(2-(2,4-dioxotetrahydropyrimidin-1(2H)-yl)-1,3-dioxoisoindolin-5-yl)-3,8-diazabicyclo[3.2.1]octan-3-yl)methyl)cyclohexyl)-6-methoxy-2H-indazol-5-yl)-3-(trifluoromethyl)benzamide]: 15 to 20% and 15 to 20%.
As for `Cn1c(=O)n(C2CCC(=O)NC2=O)c2cccc(C#CCOC3CCN(C[C@H]4CC[C@H](n5cc(NC(=O)c6cnn7ccc(N8C[C@H]9C[C@@H]8CO9)nc67)c(C(F)F)n5)CC4)CC3)c21` (stereo partly shown) [KT-474, reference compound], the inhibition at 0.01 µM in assay [4] (setting [8]) lay within 7 to 10%; in assay [3] (setting [10]), 5 to 10%. Moreover, the figures for the inhibition at 0.5 µM in assay [4] (setting [9]) and in assay [3] (setting [10]) were 7 to 10% and 15 to 20%, respectively.
On to `Cc1cc(-c2nc(C(=O)Nc3cc4oc(N5CCOCC5)nc4nc3N3CC[C@@H](O)C3)co2)ccn1` [emavusertib, Emavusertib, reference compound], for which the inhibition at 0.01 µM in assay [4] (setting [8]) lay within 3 to 7%. The inhibition at 0.5 µM in assay [4] (setting [9]) was 0 to 3%.

Source of the values: patent publication US20260364184A1, “COMPOUND BASED ON OXOISOINDOLINYL-SUBSTITUTED TETRAHYDROPYRIMIDINE-DIONE AND USE THEREOF” (GLUETACS THERAPEUTICS (SHANGHAI) CO., LTD., priority 2023, published 2026).
